Laboratory results from EP4768498A1, “PEPTIDE, DROPLET FORMING KIT, DROPLET FORMING METHOD, HYDROPHOBIC SUBSTANCE CONCENTRATION METHOD, AND PROTEIN FOLDING METHOD” (National University Corporation Tokyo University Of …, priority 2023, dated 2026).
Positions of bridges follow the written chain, without caps; N, C: chain ends. No end group written: not given here.

Tests used:
[1] = Phase-contrast microscope observation of droplets; type: physicochemical; settings: 60°C
Method: Phase-contrast microscope observation was carried out using IX-73 manufactured by Olympus Corporation (Tokyo, Japan). A sample was dropped onto a slide glass, and a cover glass was placed over the sample through a silicone spacer having a thickness of 0.2 mm. The sample was observed while incubating at 60°C. The samples were prepared by dissolving FF-ELP4 or LL-ELP4 in 50 mM Tris-HCl (pH: 7.5) containing 0.3 M sodium chloride. FF-ELP4 was dissolved to a final concentration of 1 wt%. LL-ELP4 was dissolved to a final concentration of 5 wt%.
(§1) Phase-contrast microscope observation was carried out using IX-73 manufactured by Olympus Corporation (Tokyo, Japan). A sample in which a cover glass was placed on the peptide solution through a silicone spacer having a thickness of 0.2 mm on a slide glass was observed while incubating at 60°C. The peptide solution was prepared by dissolving LL-ELP4 to 2 wt% and LL-ELP4-SS to 0.7 mM (0.16 wt%) in 50 mM Tris-HCl (pH: 7.5) containing 0.3 M sodium chloride.
as §1, with “LL-ELP4-SS” for “LL-ELP4”, “wt%” for “wt% and LL-ELP4-SS to 0.7 mM (0.16 wt%)”
(§2) A folding test of denatured BPTI was performed in the same manner as in <Folding test of denatured BPTI: LL-ELP4/LL-ELP4-SS mixed solution> described above, except that LL-ELP4-SS was used alone instead of the combination of LL-ELP4 and LL-ELP4-SS. The final concentration of LL-ELP4-SS in the test solution was 0.16 wt%.

[2] = system: Reduced and denatured BPTI; experiment: Folding test of denatured BPTI; type: biochemical, Bovine; settings: LL-ELP4-SS alone 0.16 wt%, no droplets, no centrifugation, BPTI 30 µM, 60°C
Method: LL-ELP4 and LL-ELP4-SS were dissolved in a buffer (50 mM Tris-HCl, 0.3 M NaCl, pH: 7.5) and pre-incubated at 60°C for 3 minutes. […] The mixture was incubated at 60°C, and when 1 minute, 10 minutes, and 60 minutes had elapsed, it was centrifuged (10,000 rpm, 25°C, 10 seconds) using a high-spin mini centrifuge HSC-12000 manufactured by Taiyo Corporation (Osaka, Japan) and quickly separated into a supernatant and a precipitate. To both the supernatant and the precipitate, 1 M aqueous HCl was added to quench the reaction. The samples were analyzed by reverse-phase high-performance liquid chromatography (RP-HPLC) using a Primaide HPLC system (1410 UV detector, 1310 column oven, and 1110 pump) manufactured by Hitachi, Ltd. (Tokyo, Japan) and a TSKgel Protein C4-300 column (4.6 mm i.d. × 150 mm) manufactured by Tosoh Corporation (Tokyo, Japan) at a flow rate of 1.0 mL min-1 (Solvent A: water containing 0.05% TFA; Solvent B: acetonitrile containing 0.05% TFA; linear gradient of Solvent A: 95% at 0 min, 80% at 15 min, and 30% at 115 min).
as §2

[3] = Transmittance measurement (transition temperature); type: physicochemical; settings: 2 wt% solution, 50 mM Tris-HCl (pH: 7.5) containing 0.3 M sodium chloride, absorbance at 600 nm
Method: FF-ELP4 or LL-ELP4 was dissolved in 50 mM Tris-HCl (pH: 7.5) containing 0.3 M sodium chloride and incubated at 60°C. LL-ELP4 was dissolved in 50 mM Tris-HCl (pH: 7.5) to a final concentration of 2 wt%. Since FF-ELP4 could not be dissolved to a final concentration of 2 wt%, it was dissolved in 50 mM Tris-HCl (pH: 7.5) to a final concentration of 1 wt%. Transmittance measurement was carried out using an ultraviolet-visible spectrophotometer V-650 manufactured by JASCO Corporation (Tokyo, Japan). For the samples prepared as described above, absorbance at a wavelength of 600 nm was monitored while changing the temperature. A quartz cell (optical path length: 10 mm) of Sansyo Co., Ltd. was used as a measurement cell. […] LL-ELP4-SS was dissolved in 50 mM Tris-HCl (pH: 7.5) containing 0.3 M sodium chloride and incubated at 60°C. LL-ELP4-SS was dissolved in 50 mM Tris-HCl (pH: 7.5) to a final concentration of 2 wt%. Transmittance measurement was carried out using an ultraviolet-visible spectrophotometer V-650 manufactured by JASCO Corporation (Tokyo, Japan). For the samples prepared as described above, absorbance at a wavelength of 600 nm was monitored while changing the temperature. A quartz cell (optical path length: 10 mm) of Sansyo Co., Ltd. was used as a measurement cell.

[4] = system: Native BPTI; experiment: Evaluation of incorporation of native BPTI into droplets; set-up: species or system Bovine; settings: BPTI 30 µM, 60°C overnight
Method: (§3) FF-ELP4 or LL-ELP4 was dissolved in 50 mM Tris-HCl (pH: 7.5) containing 0.3 M sodium chloride, and pre-incubated at 60°C for 1 minute. […] The mixture was incubated at 60°C overnight, centrifuged (8,000 rpm, 25°C, 30 seconds) using a high-spin mini centrifuge HSC-12000 manufactured by Taiyo Corporation (Osaka, Japan), and quickly separated into a supernatant and a precipitate (droplets). 400 µL of a 1 M HCl aqueous solution was added to each of the supernatant and the precipitate to stop the reaction. For each of the supernatant and the precipitate, the reduced and denatured BPTI or the native BPTI was quantified by HPLC analysis. The analysis was performed by reverse-phase high-performance liquid chromatography (RP-HPLC) using a Primaide HPLC system (1410 UV detector, 1310 column oven, 1110 pump) manufactured by Hitachi High-Tech Corporation (Tokyo, Japan) and a TSKgel Protein C4-300 column (4.6 mmφ × 150 mm) manufactured by Tosoh Corporation (Tokyo, Japan) at a flow rate of 1.0 mL·min^-1 (Solvent A: water containing 0.05% TFA, Solvent B: acetonitrile containing 0.05% TFA; ratio of Solvent A: linear gradient of 95% at 0 min, 80% at 15 min, and 30% at 115 min).

[5] = system: Reduced and denatured BPTI; experiment: Evaluation of incorporation of denatured BPTI into droplets; set-up: species or system Bovine; settings: for Reduced and denatured BPTI Inside droplets / Reduced and denatured BPTI Outside droplets: BPTI 30 µM, 60°C overnight
Method: as §3

| Substance | droplet formation ([1]; 0.16 wt% solution in the folding test) | droplets observed ([1]; 2 wt% solution) | added reduced and denatured BPTI detected as native structural BPTI [2] | transition temperature [3] | Native BPTI Inside droplets ([4]; peptide 2 wt%) | Native BPTI Outside droplets ([4]; peptide 2 wt%) | Native BPTI Inside droplets ([4]; peptide 5 wt%) | Native BPTI Outside droplets ([4]; peptide 5 wt%) | droplets observed ([1]; 5 wt% solution) | Reduced and denatured BPTI Inside droplets ([5]; peptide 2 wt%) | Reduced and denatured BPTI Outside droplets ([5]; peptide 2 wt%) | Reduced and denatured BPTI Inside droplets ([5]; peptide 5 wt%) | Reduced and denatured BPTI Outside droplets ([5]; peptide 5 wt%) | aggregation of reduced and denatured BPTI recovered from the droplets ([5]; peptide 5 wt%, redispersed in water) |
| --- | --- | --- | --- | --- | --- | --- | --- | --- | --- | --- | --- | --- | --- | --- |
| LL-(VPGVG)2-CGHC-(VPGVG)2 (LLVPGVGVPGVGCGHCVPGVGVPGVG; disulfide 13-16 (inferred)) [LL-ELP4-SS] | droplets were not formed | Droplets of appropriate size were observed | ≥ 99% | 48 °C |  |  |  |  |  |  |  |  |  |  |
| Ac-LLVPGVGVPGVGVPGVGVPGVG-NH2 [LL-ELP4, LL-(VPGVG)4] |  |  |  | 53 °C | 3% | 97% | 7% | 93% | droplets of appropriate size were observed | 91% | 9% | > 99% | < 1% | aggregation was suppressed |
